Measured values taken from patent US8697372B2, “Method for determining the binding of a given compound to a membrane receptor” (CIS Bio International, priority 2009, dated 2014).

Biological target: T1, Delta Opioid receptor implicated in the heterodimer with Dopamine D2 (Homo sapiens, UniProt P41143)
T1 construct: membrane-addressing signal peptide T8 (printed '18') (N); expressed in transfected cells; host or cells: HEK293T/17 cells, transient co-transfection
Format: binding
Settings: 3 nM red antagonist of the opioid receptor, D2 receptor labeled with HALO-Lumi4Tb, HEK293T cells, FIG. 10

T1 sequence (P41143 whole entry): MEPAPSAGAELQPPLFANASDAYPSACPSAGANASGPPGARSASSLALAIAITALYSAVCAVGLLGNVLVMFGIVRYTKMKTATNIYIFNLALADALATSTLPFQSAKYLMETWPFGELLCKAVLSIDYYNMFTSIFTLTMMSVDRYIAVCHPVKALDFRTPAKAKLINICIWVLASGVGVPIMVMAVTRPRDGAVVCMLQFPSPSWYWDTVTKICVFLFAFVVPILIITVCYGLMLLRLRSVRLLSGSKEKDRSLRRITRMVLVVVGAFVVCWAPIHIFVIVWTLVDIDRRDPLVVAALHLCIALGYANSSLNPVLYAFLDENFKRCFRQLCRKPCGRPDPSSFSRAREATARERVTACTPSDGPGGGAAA
T1 sequence (P14416 1-414 isoform P14416-2 partner): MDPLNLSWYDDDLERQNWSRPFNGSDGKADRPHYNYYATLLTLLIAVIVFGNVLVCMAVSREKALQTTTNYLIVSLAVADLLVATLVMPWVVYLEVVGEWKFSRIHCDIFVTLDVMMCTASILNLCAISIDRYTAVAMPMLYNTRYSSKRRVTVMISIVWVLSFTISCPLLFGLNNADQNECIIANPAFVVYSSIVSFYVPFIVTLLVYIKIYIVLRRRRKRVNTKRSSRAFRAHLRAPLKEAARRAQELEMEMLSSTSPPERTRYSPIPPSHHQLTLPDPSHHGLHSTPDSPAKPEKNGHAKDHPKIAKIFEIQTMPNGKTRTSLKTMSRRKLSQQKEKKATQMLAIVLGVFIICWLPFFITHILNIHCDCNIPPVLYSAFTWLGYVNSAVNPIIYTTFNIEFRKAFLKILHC

Compound	Competition with the fluorescent reference ligand and binding to the heterodimers
Oc1ccc2c3c1O[C@H]1c4[nH]c5ccccc5c4C[C@@]4(O)[C@@H](C2)N(CC2CC2)CC[C@]314 [Naltrindole]	compete with the fluorescent reference ligand and bind to the heterodimers
C=CCN1C[C@H](C)N([C@@H](c2ccccc2)c2ccc(C(=O)N(CC)CC)cc2)C[C@H]1C [SNC-162]	compete with the fluorescent reference ligand and bind to the heterodimers
